The results in this text go back to US20220142914A1, “SUSPENSION FORMULATIONS OF HIGH LOAD DISPERSIONS” (Austin Research Labs Corp., priority 2018, published 2022).

This assay in a line: Endotoxin (LPS) adsorption capacity and efficiency of sorbents. The following applies: 96,528 ± 9,726 EU used, about 38-39.5 mg sorbent, n=6. It is filed as binding.

In the case of Polymycin B, -sulfate [PMB], the “Adsorption Capacity (EU/mg) ± SD” value is reported as 1,746 ± 265 EU/mg; the “Adsorption Efficiency, E (%) ± SD” value was 69.66 ± 10.58%; the “LPS Conc. Post Incubation (EU/ml) ± SD” value is 760 ± 265 EU/ml; the “Log10 Reduction ± SD” value is 0.538 ± 0.142.
